Our source for the Ki values is patent publication US8846719B2, “Isoxazolo-pyridine derivatives” (Roche Palo Alto LLC, priority 2007, dated 2014).

Like-named read-outs stand apart in the source and are kept apart here.

The target of the experiment is human GABA A receptor α5β3γ2 (Homo sapiens (Human), UniProt P18507+P31644). The experiment in a line: [3H]flumazenil competition binding assay, human GABA A α5β3γ2 receptors expressed in HEK293 cells. The gist of the method:
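Competition for [3H]flumazenil binding on membranes of HEK293 cells transiently transfected with human α5β3γ2 receptors, in Krebs-tris buffer pH 7.5.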

The mark [1] stands for this setting: human receptor, displacement of [3H]flumazenil (0.5 nM), means of two determinations, read-out: hKi GABAAa5.

As to `Cc1onc(-c2ccccc2)c1COc1ccc([S+](C)[O-])cn1` (centres unmarked) [Example 248, 5-Methanesulfinyl-2-(5-methyl-3-phenyl-isoxazol-4-ylmethoxy)-pyridine], the Ki under setting [1] was found to be 28.1 nM. Still for that read-out and setting: in the case of `Cc1onc(-c2ccccc2)c1COc1ccc(C(=O)NCCOC(C)C)cn1` [Example 189, N-(2-Isopropoxy-ethyl)-6-(5-methyl-3-phenyl-isoxazol-4-ylmethoxy)-nicotinamide] it was 41.3 nM; in that of `Cc1onc(-c2ccccc2)c1COc1ccc(C(=O)N2CCC(F)(F)CC2)cn1` [Example 52, (4,4-Difluoro-piperidin-1-yl)-[6-(5-methyl-3-phenyl-isoxazol-4-ylmethoxy)-pyridin-3-yl]-methanone], 16.8 nM.

As to `O=C(NCC(F)(F)F)c1ccc(OCc2conc2-c2ccc(F)cn2)nc1` [Example 369, 6-[3-(5-Fluoro-pyridin-2-yl)-isoxazol-4-ylmethoxy]-(2,2,2-trifluoro-ethyl)-nicotinamide], under setting [1], the Ki came to 9.3 nM. The same measure, in the same setting: in the case of `Cc1onc(-c2cccc(F)c2F)c1COc1ccc(C(=O)NC2CCOCC2)cn1` [Example 262, 6-[3-(2,3-Difluoro-phenyl)-5-methyl-isoxazol-4-ylmethoxy]-N-(tetrahydro-pyran-4-yl)-nicotinamide] it was 5.2 nM; in that of `Cc1onc(-c2cccc(F)c2)c1CNc1ccc(C(=O)NC(C)C)cn1` [Example 169, 6-{[3-(3-Fluoro-phenyl)-5-methyl-isoxazol-4-ylmethyl]-amino}-N-isopropyl-nicotinamide], 15.4 nM; in that of `O=C(NCC1CC1)c1ccc(OCc2conc2-c2ccc(F)cc2)nc1` [Example 328, N-Cyclopropylmethyl-6-[3-(4-fluoro-phenyl)-isoxazol-4-ylmethoxy]-nicotinamide], 17.4 nM. Still for that read-out and setting: in the case of `Cc1onc(-c2ccccc2)c1COc1ccc(C(=O)NC2CCS(=O)(=O)C2)cn1` (centres unmarked) [Example 185, N-(1,1-Dioxo-tetrahydro-thiophen-3-yl)-6-(5-methyl-3-phenyl-isoxazol-4-ylmethoxy)-nicotinamide] it was 4.5 nM; in that of `Cc1onc(-c2ccccc2)c1COc1ccc(C(=O)NCC(=O)OC(C)(C)C)cn1` [Example 24, {[6-(5-Methyl-3-phenyl-isoxazol-4-ylmethoxy)-pyridine-3-carbonyl]-amino}-acetic acid tert-butyl ester], 35 nM; in that of `Cc1onc(-c2ccccc2)c1COc1ccc(C(=O)NCc2ccccn2)cn1` [Example 22, 6-(5-Methyl-3-phenyl-isoxazol-4-ylmethoxy)-N-pyridin-2-ylmethyl-nicotinamide], 4.6 nM. Same read-out and setting: in the case of `Cc1onc(-c2ccccc2)c1COc1ccc(C(=O)NC(C)CO)cn1` (centres unmarked) [Example 190, N-(2-Hydroxy-1-methyl-ethyl)-6-(5-methyl-3-phenyl-isoxazol-4-ylmethoxy)-nicotinamide] it was 1 nM. As to `Cc1onc(-c2ccc(Cl)cn2)c1COc1ccc(C(=O)N2CCS(=O)(=O)CC2)cn1` [Example 307, {6-[3-(5-Chloro-pyridin-2-yl)-5-methyl-isoxazol-4-ylmethoxy]-pyridin-3-yl}-(1,1-dioxo-1,6-thiomorpholin-4-yl)-methanone], the Ki under setting [1] came out at 0.6 nM. Still for that read-out and setting: in the case of `Cc1onc(-c2ccccc2)c1COc1ccc(C(=O)NCC(O)C(F)(F)F)cn1` (centres unmarked) [Example 186, 6-(5-Methyl-3-phenyl-isoxazol-4-ylmethoxy)-N-(3,3,3-trifluoro-2-hydroxy-propyl)-nicotinamide] it was 2.3 nM; in that of `CC(C)(CO)NC(=O)c1ccc(OCc2conc2-c2ccc(Cl)cc2)nc1` [Example 349, 6-[3-(4-Chloro-phenyl)-isoxazol-4-ylmethoxy]-N-(2-hydroxy-1,1-dimethyl-ethyl)-nicotinamide], 39.9 nM; in that of `Cc1onc(-c2ccccc2)c1COc1ccc(C(=O)N[C@H](CO)CC(C)C)cn1` [Example 207, N—((S)-1-Hydroxymethyl-3-methyl-butyl)-6-(5-methyl-3-phenyl-isoxazol-4-ylmethoxy)-nicotinamide], 10.9 nM. Molecule `Cc1onc(-c2ccccc2)c1COc1cc(C2=CCN(C)CC2)ccn1` [Example 57, 1-Methyl-2′-(5-methyl-3-phenyl-isoxazol-4-ylmethoxy)-1,2,3,6-tetrahydro-[4,4′]bipyridinyl] displayed a Ki of 32.1 nM.

With `Cc1onc(-c2ccccc2)c1COc1ccc(C(=O)NCCO)cn1` [Example 13, N-(2-Hydroxy-ethyl)-6-(5-methyl-3-phenyl-isoxazol-4-ylmethoxy)-nicotinamide], the Ki under setting [1] was 2.6 nM. The same measure, in the same setting: in the case of `Cc1onc(-c2ccccc2)c1COc1ccc(C(=O)N2CC(O)C2)cn1` [Example 191, (3-Hydroxy-azetidin-1-yl)-[6-(5-methyl-3-phenyl-isoxazol-4-ylmethoxy)-pyridin-3-yl]-methanone] it was 5 nM; in that of `Cc1onc(-c2ccccc2)c1COc1ccc(C(=O)Nc2cnn(C)c2)cn1` [Example 237, 6-(5-Methyl-3-phenyl-isoxazol-4-ylmethoxy)-N-(1-methyl-1H-pyrazol-4-yl)-nicotinamide], 1.1 nM; in that of `Cc1onc(-c2ccccc2)c1COc1ccccn1` [Example 1, 2-(5-Methyl-3-phenyl-isoxazol-4-ylmethoxy)-pyridine], 36.5 nM. Turning to `Cc1onc(-c2ccncc2)c1COc1ccc(C(=O)N2CCS(=O)(=O)CC2)cn1` [Example 153, (1,1-Dioxo-1λ6-thiomorpholin-4-yl)-[6-(5-methyl-3-pyridin-4-yl-isoxazol-4-ylmethoxy)-pyridin-3-yl]-methanone], the Ki under setting [1] turned out to be 65.7 nM. The same measure, in the same setting: in the case of `Cc1onc(-c2ccccc2)c1COc1ccc(C(=O)N2CCS(=O)(=O)CC2)cn1` [Example 55, (1,1-Dioxo-1,6-thiomorpholin-4-yl)-[6-(5-methyl-3-phenyl-isoxazol-4-ylmethoxy)-pyridin-3-yl]-methanone] it was 22.8 nM; in that of `O=C(NC1CC1)c1ccc(OCc2conc2-c2ccc(Cl)cc2)nc1` [Example 343, 6-[3-(4-Chloro-phenyl)-isoxazol-4-ylmethoxy]-N-cyclopropyl-nicotinamide], 12.4 nM; in that of `Cc1onc(-c2ccc(Cl)cc2)c1COc1ccc(C(=O)NCC(F)(F)F)cn1` [Example 117, 6-[3-(4-Chloro-phenyl)-5-methyl-isoxazol-4-ylmethoxy]-N-(2,2,2-trifluoro-ethyl)-nicotinamide], 2.1 nM. Turning to `Cc1onc(-c2cccc(Cl)c2)c1COc1ccc(C(=O)NCC2CC2)cn1` [Example 99, 6-[3-(3-Chloro-phenyl)-5-methyl-isoxazol-4-ylmethoxy]-N-cyclopropylmethyl-nicotinamide], the Ki under setting [1] was found to be 8.1 nM.

Turning to `COCCNC(=O)c1ccc(OCc2conc2-c2ccc(F)cc2)nc1` [Example 336, 6-[3-(4-Fluoro-phenyl)-isoxazol-4-ylmethoxy]-N-(2-methoxy-ethyl)-nicotinamide], under setting [1], the Ki amounted to 40.7 nM. On the same count and under the same terms, in the case of `O=C(NCCCO)c1ccc(OCc2conc2-c2ccc(Cl)cc2)nc1` [Example 348, 6-[3-(4-Chloro-phenyl)-isoxazol-4-ylmethoxy]-N-(3-hydroxy-propyl)-nicotinamide] it was 10.3 nM. Still for that read-out and setting: in the case of `Cc1onc(-c2ccccc2)c1COc1ccc(C(=O)NC(C)(C)C)cn1` [Example 47, N-tert-Butyl-6-(5-methyl-3-phenyl-isoxazol-4-ylmethoxy)-nicotinamide] it was 11.8 nM. Still for that read-out and setting: in the case of `Cc1nc(OCc2c(-c3ccccc3)noc2C)c(Br)cc1C(=O)NC1CCOCC1` [Example 67, 5-Bromo-2-methyl-6-(5-methyl-3-phenyl-isoxazol-4-ylmethoxy)-N-(tetrahydro-pyran-4-yl)-nicotinamide] it was 47.3 nM; in that of `Cc1onc(-c2ccccc2)c1COc1ccc(C(=O)NCC(O)CO)cn1` (centres unmarked) [Example 218, N-(2,3-Dihydroxy-propyl)-6-(5-methyl-3-phenyl-isoxazol-4-ylmethoxy)-nicotinamide], 2 nM; in that of `CC(=O)NCCNC(=O)c1ccc(OCc2c(-c3ccccc3)noc2C)nc1` [Example 205, N-(2-Acetylamino-ethyl)-6-(5-methyl-3-phenyl-isoxazol-4-ylmethoxy)-nicotinamide], 4 nM.

For the molecule `COC(=O)c1ccc(OCc2c(-c3cccc(Cl)c3)noc2C)nc1` [Example 97, 6-[3-(3-Chloro-phenyl)-5-methyl-isoxazol-4-ylmethoxy]-nicotinic acid methyl ester], under setting [1], the Ki was found to be 27.4 nM. On the same count and under the same terms, in the case of `Cc1onc(-c2ccc(Cl)cc2)c1COc1ccc(C(=O)N[C@@H](C)CO)cn1` [Example 257, 6-[3-(4-Chloro-phenyl)-5-methyl-isoxazol-4-ylmethoxy]-N—((S)-2-hydroxy-1-methyl-ethyl)-nicotinamide] it was 0.5 nM. Take `CCNC(=O)CN1CCCC(NC(=O)c2ccc(OCc3c(-c4ccccc4)noc3C)nc2)C1` (centres unmarked) [Example 42, N-(1-Ethylcarbamoylmethyl-piperidin-3-yl)-6-(5-methyl-3-phenyl-isoxazol-4-ylmethoxy)-nicotinamide]: under setting [1], the Ki was found to be 13.7 nM. On the same count and under the same terms, in the case of `O=C(NC1CCOCC1)c1ccc(OCc2conc2-c2ccc(F)cc2)nc1` [Example 324, 6-[3-(4-Fluoro-phenyl)-isoxazol-4-ylmethoxy]-N-(tetrahydro-pyran-4-yl)-nicotinamide] it was 10.6 nM; in that of `CNC(=O)c1ccc(OCc2c(-c3ccccc3)noc2C)nc1` [Example 8, N-Methyl-6-(5-methyl-3-phenyl-isoxazol-4-ylmethoxy)-nicotinamide], 4.3 nM. Same read-out and setting: in the case of `Cc1onc(-c2ccccc2)c1COc1ccc(C(=O)Nc2ccccc2)cn1` [Example 48, 6-(5-Methyl-3-phenyl-isoxazol-4-ylmethoxy)-N-phenyl-nicotinamide] it was 38 nM; in that of `Cc1onc(-c2ccccc2)c1COc1ccc(C(=O)N[C@H]2CCC[C@H]2O)cn1` (single isomer, unassigned) [Example 211, N-((1S,2R)-2-Hydroxy-cyclopentyl)-6-(5-methyl-3-phenyl-isoxazol-4-ylmethoxy)-nicotinamide or N-((1R,2S)-2-hydroxy-cyclopentyl)-6-(5-methyl-3-phenyl-isoxazol-4-ylmethoxy)-nicotinamide], 2.7 nM.
